Values of other authors, collected in patent US20200197351A1, “TRIVALENT AND DIVALENT CATIONS AS ADMINISTRABLE AGENTS FOR INCREASED PROCESSIVITY AND IMPROVED FIDELITY OF REVERSE TRANSCRIPTASE IN TELOMERASE AND IN NUCLEIC ACID POLYMERASES” (priority 2018, published 2020).

Conditions: detailed testing in mammals

[Sc] [Scandium]
toxicity: little or no toxicity
